Experimental data: patent US20040247589A1, “Anti-tumor activity from reptile serum” (priority 2001, published 2004)

Assays:
[1] = tested on: normal bone marrow cells; assay: Cell proliferation assay (BrdU) in normal bone marrow cells; type: cell-based; details: normal human bone marrow cells
Description: (§1) Cell proliferation was assayed using the commercial ELISA kit BIOTRACK™ (RPN250, Amersham Life Sciences). The assay is based on incorporation of 5-bromo-2′-deoxyuridine (BrdU) during DNA synthesis. After treatment of cells with the tested agent for 24 hours, cells are incubated for 18 hours in the presence of 10 μM BrdU. This pyrimidine analog is incorporated into DNA and is detected using specific antibody conjugated to peroxidase following 3,3′,5′,5′-tetramethylbenzidine (TMB) as a substrate. The absorbance of the enzymatic product is measured at 450 nm.

[2] = tested on: PN71 cells; assay: Cell proliferation assay (BrdU) in PN71 cells; type: cell-based, murine
Description: as §1

Nc1ccn([C@@H]2O[C@H](CO)[C@@H](O)[C@@H]2O)c(=O)n1 [Cytosar, Cytarabine]
effect on proliferation (BrdU) of normal bone marrow cells [1]: indiscriminately destroys | effect on proliferation (BrdU) of PN71 cells [2]: indiscriminately destroys
